The values that follow come from ChEMBL document CHEMBL1201862, “PubChem BioAssay data set” (2004).

Some test systems named below: NCI-H226; HT-29; MCF7; HCC 2998; COLO 205; SK-MEL-5; NCI-H23; IGROV-1; MOLT-4; U-251; HOP-62; SNB-19; SF-268; RPMI-8226; SK-OV-3; SK-MEL-2; K562; RXF 393; OVCAR-3; LOX IMVI.
Holding throughout (assay): NCI tumour cell line growth inhibition, 48 h

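Protocol summary: plate cells (96-well), add compound at 5 concentrations, incubate 48 h, interpolate endpoints linearly. At the GI50, growth is halved.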 Activity calls are given as the source filed them. No stated cut-off is given here; in the data, active = GI50 up to about 1.1 µM and inactive = higher.

In the case of `Nc1ncc2c(n1)-c1ccccc1OC2`, the GI50 was 36.6 µM (inactive) in the assay on NCI-H226; > 100 µM (inactive) in the assay on HT-29; > 100 µM (inactive) in the assay with MCF7; > 100 µM (inactive) with HCC 2998; > 100 µM (inactive) with COLO 205; > 100 µM (inactive) in the assay with SK-MEL-5. Moreover, the GI50 with NCI-H23 is > 100 µM (inactive); with IGROV-1, 40.4 µM (inactive); in the assay with MOLT-4 it was > 100 µM (inactive); in the assay on U-251, > 100 µM (inactive); with HOP-62 it was 76 µM (inactive); in the assay with SNB-19, > 100 µM (inactive). Moreover, the GI50 in the assay on SF-268 was > 100 µM (inactive); in the assay on RPMI-8226, > 100 µM (inactive); with SK-OV-3 it was > 100 µM (inactive); with SK-MEL-2 it was > 100 µM (inactive); in the assay with K562 it was > 100 µM (inactive); in the assay on RXF 393 it was > 69.2 µM (inactive). Further, the GI50 in the assay on OVCAR-3 and in the assay on LOX IMVI was > 100 µM (inactive) in each case.
In the case of `CN(C)CCNC(=O)c1cccc2c1C(=O)c1ccccc1C2=O`, the GI50 is > 94 µM (inactive) in the assay with NCI-H226; 26.2 µM (inactive) in the assay on HT-29; 16.2 µM (inactive) in the assay on MCF7; 39.1 µM (inactive) with HCC 2998; 16 µM (inactive) in the assay on COLO 205; 20.5 µM (inactive) in the assay on SK-MEL-5. Besides, the GI50 with NCI-H23 is 22 µM (inactive); with IGROV-1, 26.4 µM (inactive); with MOLT-4, 20.5 µM (inactive); in the assay with U-251, 31.7 µM (inactive); in the assay with HOP-62, > 31.6 µM (inactive); in the assay on SNB-19, 28 µM (inactive). Besides, the GI50 in the assay with SF-268 was > 100 µM (inactive); in the assay with RPMI-8226, 50.9 µM (inactive); in the assay on SK-OV-3, 58.9 µM (inactive); in the assay on SK-MEL-2, > 37.3 µM (inactive); in the assay with K562, 19.1 µM (inactive); in the assay on RXF 393 it was 55 µM (inactive). Besides, the GI50 with OVCAR-3 was 19.3 µM (inactive); in the assay with LOX IMVI, 25.6 µM (inactive).
`CCOC(=O)C(O)(NC(=O)c1ccc(F)cc1)C(F)(F)F` (stereo not given): the GI50 in the assay with NCI-H226, in the assay with HT-29, with MCF7, in the assay on HCC 2998, in the assay on COLO 205 and with SK-MEL-5 was > 100 µM (inactive) in each case. In addition, the GI50 is > 100 µM (inactive) in the assay with NCI-H23; 57 µM (inactive) with IGROV-1; > 100 µM (inactive) in the assay on MOLT-4; > 100 µM (inactive) with U-251; > 100 µM (inactive) in the assay on HOP-62; > 100 µM (inactive) in the assay on SNB-19. In addition, the GI50 in the assay on SF-268, with RPMI-8226, in the assay with SK-OV-3, with SK-MEL-2, with K562 and in the assay with RXF 393 was > 100 µM (inactive) each time. Moreover, the GI50 in the assay on OVCAR-3 and in the assay on LOX IMVI was > 100 µM (inactive) in each case.
In the case of `Cc1c2c(cc3c1[nH]c1ccccc13)C(c1ccc(F)cc1)=NCC2`, the GI50 in the assay on NCI-H226 is 1.43 µM (inactive); in the assay on HT-29, 1.17 µM (inactive); with MCF7, 1.09 µM (active); with HCC 2998, 1.04 µM (active); with COLO 205, 0.679 µM (active); in the assay with SK-MEL-5 it was 1.72 µM (inactive). The GI50 in the assay on NCI-H23 was 1.15 µM (inactive); in the assay on IGROV-1, 0.855 µM (active); in the assay with MOLT-4 it was 1 µM (active); in the assay on U-251 it was 1.43 µM (inactive); in the assay on HOP-62, 2.05 µM (inactive); with SNB-19 it was 1.41 µM (inactive). For the same compound, the GI50 is 2.18 µM (inactive) in the assay with SF-268; 0.935 µM (active) in the assay with RPMI-8226; 1.37 µM (inactive) with SK-OV-3; 1.21 µM (inactive) in the assay with SK-MEL-2; 0.379 µM (active) in the assay with K562; 1.42 µM (inactive) with RXF 393. The GI50 with OVCAR-3 is 0.993 µM (active); with LOX IMVI, 0.509 µM (active).
